Measurements: patent publication US20060069132A1, “Azolecarboxamide herbicides” (priority 2004, published 2006)

Key:
barnyardgrass [1] = test: Test B flooded paddy test; assay type: in vivo, Echinochloa crus-galli; details: 1000 g ai/ha, scale 0 to 100 (0 no effect, 100 complete control)
In short: (§1)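 Paddy species grown to the 2-leaf stage under flooding; blackgrass sprayed postemergence at 2–18 cm (1- to 4-leaf stage). Plants kept in a greenhouse for 13 to 15 days, then visually rated against controls on 0 (no effect) to 100 (complete control).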

wild oat = test: Test B postemergence herbicide test; assay type: in vivo, Avena fatua
In short: (§2)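 Scale 0–100: zero equals no visible effect, 100 complete control, judged by eye relative to controls. Timing: 13 to 15 days in greenhouse post-treatment. Growth stage at spraying: two leaves (paddy) or one to four leaves, 2–18 cm (postemergence).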

cocklebur = test: Test B pre-/postemergence herbicide test; assay type: in vivo, Xanthium strumarium
In short: (§3)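 Test chemicals in a non-phytotoxic solvent mixture with surfactant were applied preemergence to seeded species and postemergence to plants 2-18 cm tall (1- to 4-leaf stage); rice and barnyardgrass were also tested in a flooded paddy at the 2-leaf stage. Visual rating versus controls after 13-15 days in greenhouse, scale 0 (no effect) to 100 (complete control).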

Surinam grass = test: Test B pre-/postemergence herbicide test; assay type: in vivo, Urochloa decumbens
In short: (§4)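 Plants compared with untreated controls 13–15 days post-treatment and given a visual 0–100 injury score. Applications: preemergence to seeds; postemergence at 1- to 4-leaf (2–18 cm); paddy species flooded, 2-leaf stage. Vehicle non-phytotoxic, surfactant included.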

[2] = system: small flower umbrella sedge; test: Test B flooded paddy test; assay type: in vivo, Cyperus difformis; details: 1000 g ai/ha, scale 0 to 100 (0 no effect, 100 complete control)
In short: as §1

barnyardgrass [3] = test: Test B pre-/postemergence herbicide test; assay type: in vivo, Echinochloa crus-galli
In short: as §3

wheat = test: Test B postemergence herbicide test; assay type: in vivo, Triticum aestivum; parameters: key to Wheat plant response rating: 0 = no effect, 100 = complete control
In short: as §2

blackgrass = test: Test B postemergence herbicide test; assay type: in vivo, Alopecurus myosuroides
In short: as §1

ducksalad = test: Test B flooded paddy test; assay type: in vivo, Heteranthera limosa; details: 1000 g ai/ha, scale 0 to 100 (0 no effect, 100 complete control)
In short: as §1

large crabgrass = test: Test B pre-/postemergence herbicide test; assay type: in vivo, Digitaria sanguinalis
In short: as §4

lambsquarters = test: Test B pre-/postemergence herbicide test; assay type: in vivo, Chenopodium album
In short: as §4

velvetleaf = test: Test B pre-/postemergence herbicide test; assay type: in vivo, Abutilon theophrasti
In short: as §4

morningglory = test: Test B pre-/postemergence herbicide test; assay type: in vivo, Ipomoea coccinea
In short: as §3

rice = test: Test B flooded paddy test; assay type: in vivo, Oryza sativa; details: 1000 g ai/ha, scale 0 to 100 (0 no effect, 100 complete control)
In short: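 Formulated test chemicals went onto postemergence plants measuring 2 to 18 cm, at one to four leaves. For the paddy assay, species had reached two leaves. Scoring took place 13–15 days later by eye, relative to untreated plants, using 0 for no effect up to 100 for full control.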

corn = test: Test B pre-/postemergence herbicide test; assay type: in vivo, Zea mays
In short: as §4

[4] = 125 g ai/ha; visual rating, scale 0 (no effect) to 100 (complete control); postemergence
[5] = postemergence, 500 g ai/ha; scale 0 to 100, 0 is no effect, 100 is complete control
[6] = 125 g ai/ha; 0 = no effect, 100 = complete control; preemergence
[7] = 500 g ai/ha; visual rating, 0 = no effect, 100 = complete control; preemergence
[8] = postemergence, 125 g ai/ha; visual rating, scale 0 (no effect) to 100 (complete control)
[9] = postemergence, 500 g ai/ha; visual rating, scale 0 (no effect) to 100 (complete control)
[10] = 500 g ai/ha; visual rating 0-100, 0 no effect, 100 complete control; preemergence
[11] = preemergence, 125 g ai/ha; 0 to 100 scale, 0 is no effect, 100 is complete control

**Q.** Which results are given for `CCn1nc(C(C)(C)C)cc1C(=O)Nc1cncc(C(=O)N2CC=CC2)n1` [Compound 290]?
**A.** Barnyardgrass plant response rating (barnyardgrass [1]): 70; Oat, Wild plant response rating (wild oat; [4]): 20; Oat, Wild plant response rating (wild oat; [5]): 40; Cocklebur plant response rating (0 to 100 scale) (cocklebur; [6]): 0; Cocklebur plant response rating (cocklebur; [4]): 0; Plant response rating, Cocklebur (cocklebur; [7]): 0; Cocklebur plant response rating (cocklebur; [5]): 10; Surinam Grass plant response rating (0 to 100 scale) (Surinam grass; [6]): 0; Surinam Grass plant response rating (Surinam grass; [4]): 0; Plant response rating, Surinam Grass (Surinam grass; [7]): 10; Surinam Grass plant response rating (Surinam grass; [5]): 30; Sedge, Umbrella plant response rating [2]: 70; Barnyardgrass plant response rating (0 to 100 scale) (barnyardgrass [3]; [6]): 0; Barnyardgrass plant response rating (barnyardgrass [3]; [4]): 0; Plant response rating, Barnyardgrass (barnyardgrass [3]; [7]): 80; Barnyardgrass plant response rating (barnyardgrass [3]; [5]): 0; Wheat plant response rating (wheat; [4]): 20; Wheat plant response rating (wheat; [5]): 30; Blackgrass plant response rating (blackgrass; [4]): 20; Blackgrass plant response rating (blackgrass; [5]): 30; Ducksalad plant response rating (ducksalad): 70; Crabgrass, Large plant response rating (0 to 100 scale) (large crabgrass; [6]): 0; Crabgrass, Large plant response rating (large crabgrass; [4]): 0; Plant response rating, Crabgrass, Large (large crabgrass; [7]): 90; Crabgrass, Large plant response rating (large crabgrass; [5]): 0; Lambsquarters plant response rating (0 to 100 scale) (lambsquarters; [6]): 100; Lambsquarters plant response rating (lambsquarters; [4]): 10; Plant response rating, Lambsquarters (lambsquarters; [7]): 100; Lambsquarters plant response rating (lambsquarters; [5]): 20; Velvetleaf plant response rating (velvetleaf; [4]): 0; Plant response rating, Velvetleaf (velvetleaf; [7]): 0; Velvetleaf plant response rating (velvetleaf; [5]): 10; Morningglory plant response rating (0 to 100 scale) (morningglory; [6]): 0; Morningglory plant response rating (morningglory; [4]): 0; Plant response rating, Morningglory (morningglory; [7]): 0; Morningglory plant response rating (morningglory; [5]): 0; Rice plant response rating (rice): 60; Corn plant response rating (0 to 100 scale) (corn; [6]): 0; Corn plant response rating (corn; [4]): 0; Plant response rating, Corn (corn; [7]): 0; Corn plant response rating (corn; [5]): 10

**Q.** What does the source list for `CCc1nc(C(C)(C)C)sc1C(=O)Nc1cccc(C(=O)NC(C)(C)C)n1` [Compound 216]?
**A.** Barnyardgrass plant response rating (barnyardgrass [1]; visual rating, 13 to 15 days): 20; Oat, Wild plant response rating (wild oat; [8]): 0; Oat, Wild plant response rating (wild oat; [9]): 0; Cocklebur plant response rating (0 to 100 scale) (cocklebur; [6]): 0; Plant response rating, Cocklebur (cocklebur; [7]): 0; Cocklebur plant response rating (cocklebur; [8]): 0; Cocklebur plant response rating (cocklebur; [9]): 70; Surinam Grass plant response rating (0 to 100 scale) (Surinam grass; [6]): 0; Plant response rating, Surinam Grass (Surinam grass; [7]): 70; Surinam Grass plant response rating (Surinam grass; [8]): 0; Surinam Grass plant response rating (Surinam grass; [9]): 20; Sedge, Umbrella plant response rating ([2]; visual rating, 13 to 15 days): 90; Barnyardgrass plant response rating (0 to 100 scale) (barnyardgrass [3]; [6]): 0; Plant response rating, Barnyardgrass (barnyardgrass [3]; [7]): 40; Barnyardgrass plant response rating (barnyardgrass [3]; [8]): 0; Barnyardgrass plant response rating (barnyardgrass [3]; [9]): 10; Wheat plant response rating (wheat; [8]): 0; Wheat plant response rating (wheat; [9]): 10; Blackgrass plant response rating (blackgrass; [8]): 0; Blackgrass plant response rating (blackgrass; [9]): 0; Ducksalad plant response rating (ducksalad; visual rating, 13 to 15 days): 80; Crabgrass, Large plant response rating (0 to 100 scale) (large crabgrass; [6]): 0; Plant response rating, Crabgrass, Large (large crabgrass; [7]): 40; Crabgrass, Large plant response rating (large crabgrass; [8]): 0; Crabgrass, Large plant response rating (large crabgrass; [9]): 0; Lambsquarters plant response rating (0 to 100 scale) (lambsquarters; [6]): 90; Plant response rating, Lambsquarters (lambsquarters; [7]): 100; Lambsquarters plant response rating (lambsquarters; [8]): 0; Lambsquarters plant response rating (lambsquarters; [9]): 0; Velvetleaf plant response rating (0 to 100 scale) (velvetleaf; [6]): 0; Plant response rating, Velvetleaf (velvetleaf; [7]): 0; Velvetleaf plant response rating (velvetleaf; [8]): 0; Velvetleaf plant response rating (velvetleaf; [9]): 60; Morningglory plant response rating (0 to 100 scale) (morningglory; [6]): 0; Plant response rating, Morningglory (morningglory; [7]): 0; Morningglory plant response rating (morningglory; [8]): 0; Morningglory plant response rating (morningglory; [9]): 0; Rice plant response rating (rice; visual rating, 13 to 15 days): 30; Corn plant response rating (0 to 100 scale) (corn; [6]): 0; Plant response rating, Corn (corn; [7]): 0; Corn plant response rating (corn; [8]): 0; Corn plant response rating (corn; [9]): 10

**Q.** What does the source list for `C#CCNC(=O)c1cccc(NC(=O)c2cc(C(C)(C)C)nn2CC)n1` [Compound 147]?
**A.** Barnyardgrass plant response rating (barnyardgrass [1]; visual rating, 13 to 15 days): 60; Oat, Wild plant response rating (wild oat; [8]): 0; Oat, Wild plant response rating (wild oat; [9]): 30; Plant response rating, Cocklebur (cocklebur; [10]): 10; Cocklebur plant response rating (cocklebur; [8]): 0; Cocklebur plant response rating (cocklebur; [9]): 80; Plant response rating, Cocklebur (cocklebur; [11]): 0; Plant response rating, Surinam Grass (Surinam grass; [10]): 80; Surinam Grass plant response rating (Surinam grass; [8]): 20; Surinam Grass plant response rating (Surinam grass; [9]): 30; Plant response rating, Surinam Grass (Surinam grass; [11]): 20; Sedge, Umbrella plant response rating ([2]; visual rating, 13 to 15 days): 90; Plant response rating, Barnyardgrass (barnyardgrass [3]; [10]): 90; Barnyardgrass plant response rating (barnyardgrass [3]; [8]): 20; Barnyardgrass plant response rating (barnyardgrass [3]; [9]): 30; Plant response rating, Barnyardgrass (barnyardgrass [3]; [11]): 70; Wheat plant response rating (wheat; [9]): 20; Blackgrass plant response rating (blackgrass; [8]): 10; Blackgrass plant response rating (blackgrass; [9]): 20; Ducksalad plant response rating (ducksalad; visual rating, 13 to 15 days): 80; Plant response rating, Crabgrass, Large (large crabgrass; [10]): 100; Crabgrass, Large plant response rating (large crabgrass; [8]): 20; Crabgrass, Large plant response rating (large crabgrass; [9]): 70; Plant response rating, Crabgrass, Large (large crabgrass; [11]): 90; Plant response rating, Lambsquarters (lambsquarters; [10]): 100; Lambsquarters plant response rating (lambsquarters; [8]): 80; Lambsquarters plant response rating (lambsquarters; [9]): 90; Plant response rating, Lambsquarters (lambsquarters; [11]): 90; Plant response rating, Velvetleaf (velvetleaf; [10]): 80; Velvetleaf plant response rating (velvetleaf; [8]): 60; Velvetleaf plant response rating (velvetleaf; [9]): 60; Plant response rating, Velvetleaf (velvetleaf; [11]): 30; Plant response rating, Morningglory (morningglory; [10]): 30; Morningglory plant response rating (morningglory; [8]): 0; Morningglory plant response rating (morningglory; [9]): 30; Plant response rating, Morningglory (morningglory; [11]): 0; Rice plant response rating (rice; visual rating, 13 to 15 days): 50; Plant response rating, Corn (corn; [10]): 10; Corn plant response rating (corn; [8]): 10; Corn plant response rating (corn; [9]): 30; Plant response rating, Corn (corn; [11]): 10
